From patent publication US6924268B2, “Method for inactivating gonadotrophs” (Colorado State University Research Foundation, priority 1989, dated 2005)

What was measured:
ovine pituitary cells [1] = assay: LH synthesis by ovine pituitary cells in suspension culture; assay type: cell-based; settings: cells incubated with treatment for 16 hours; LH synthesis during 24 hour culture after removal
Experimental: In addition, the conjugation procedure reduces the toxicity of the pokeweed antiviral protein by 99.5 in a cell-free translation system. […] The activity of this conjugate was also tested in a pituitary cell culture system. In this system, pituitary cells were incubated with the sterilization agent conjugated to [D-Lys^6, des-Gly^10]-GnRH-ethylamide for 16 hours. After incubation, the sterilization agents were removed from the incubation media by extensive washing and the cells were then cultured for an additional 24 hours. The increase in total LH, i.e., that present in the media plus that in the cells during the 24 hour period, represents the ability of the treated cells to synthesize LH. […]
The effect of these compounds on ovine pituitary cells in suspension culture was measured. […] After pretreatment, the cells were washed 6 times, counted, and small aliquots removed for testing. […] 3 ml of cold Gel-PBS was added to each tube, cells were centrifuged, and the media was measured for LH content. The four pretreatment groups were evaluated for their ability to synthesize and secrete LH immediately after treatment and after the 24 hour recovery period.

[2] = tested on: GnRH induced secretion of LH; assay: GnRH induced secretion of LH in ovariectomized female rats; assay type: in vivo; settings: single injection; ovariectomized female rat
Experimental: Applicants also tested these compounds using an in vivo model. The test system initially chosen was the ovariectomized female rat. […] During week 2, release of LH was reduced by 50% in the GnRH-A treated group (controls), but by >90% in the GnRH-A-T group. […] It might however be the basis for a temporary sterilization. Based upon this finding, a second experiment was conducted to examine the effect of 4 injections of a pokeweed antiviral sterilization conjugate at 3-day intervals on the ability of ovariectomized rats to release LH.
Applicants also tested the PAP-carbodiimide-[D-Lys^6, desGly^10]-GnRH-ethylamide conjugate in ovariectomized female rats.
FIG. 1B indicates the results of a challenge by one of applicants' compounds to ovariectomized rats. […] The open space above the bars indicates the amount of LH released in response to a GnRH challenge. The challenges were administered on the first day of treatment and again 4 weeks later.

ovine pituitary cells [3] = assay: Total culture LH after exposure to GnRH and toxin conjugates with or without lysosomal agents; assay type: cell-based; settings: 24 hour exposure, wash, further 24 hour culture in standard media
Experimental: Applicants then tested the more promising Barley-2IT-[D-Lys^6, desGly^10]-GnRH-ethylamide conjugate in similar assay systems. […] Ovine pituitary cells were again placed in culture with various agents and the total LH in the cells and media determined after a 24 hour exposure, wash, and further 24 hour culture in standard media.

Substance	SYNTHESIS of LH (ovine pituitary cells [1]) [ng per 5 × 10^6 cells]	reduction of release of LH, week 2 [2] [%]	Total LH (ovine pituitary cells [3]) [Ng/10^5 cells in Culture]
gonadotropin-releasing hormone (QHWSYGLRPG; Gonadoliberin-1; UniProt P01148 24-33, looked up) [GnRH, native decapeptide hormone]	545.5		
pyroGlu-His-Trp-Ser-Tyr-D-Lys-Leu-Arg-Pro-ethylamide [[D-Lys^6, des-Gly^10]-GnRH-ethylamide]		50	1.62
